Source: patent US8871762B2, “Plant disease controlling composition and method for controlling plant disease” (Sumitomo Chemical Company, Limited, priority 2010, dated 2014)
Where two headings read alike, the source gives them in different places.

Test system: gray mold fungus (Botrytis cinerea)
Experiment: Cucumber leaf disk preventive test against gray mold fungus
Type: in vivo
Settings: for pest or weed control at 0.5 ppm / pest or weed control at 5 ppm: Botrytis cinerea, foliar, 96 h, read-out: preventive value (%)
Experimental: True leaf of cucumber is punched out with cork borer to 13 mm in diameter to prepare a leaf disk. In 24 well microwell plate that is dispensed with 1 ml 0.8% water agar, the leaf disk is placed such that the upper side of the leaf is in an upward direction. Thereto is added 20 micro liter a testing solution prepared by mixing a dimethyl sulfoxide solution of the present compound (racemate) and a dimethyl sulfoxide solution of isopyrazam, boscalid or penthiopyrad to a predetermined concentration to treat the leaf disk.
After confirming that the testing medical solution is dried, conidium of gray mold fungus (Botrytis cinerea) is suspended into potato dextrose broth (DIFCO) in a density of about 10^5 conidium/mL and is then subjected to a spray inoculation. After leaving to stand the leaf disk in a growth chamber set up at 15° C. for four days, an onset area on the leaf is measured and then calculated an onset area rate (hereinafter, referred to as an onset area rate of treated group).
The same operation is carried out with 20 micro liter water instead of 20 micro liter a testing medicine solution to calculate an onset area rate (hereinafter, referred to an onset area rate of non-treated group).
A preventive value is calculated from the above onset area rate of treated group and the onset area rate of non-treated group by the following equation: Preventive value(%)=100×(A−B)/A
A: an onset area rate of treated group
B: an onset area rate of non-treated group […]
For comparison, the same operations as described in Test Example 1 are carried out with the exception that the testing medicine solution is substituted with a predetermined concentration of each dimethyl sulfoxide solution of isopyrazam, boscalid or penthiopyrad, so as to calculate respective preventive values.

[1] = carboxamide compound alone, 0.5 ppm, cucumber leaf disk, 15° C., four days
[2] = carboxamide compound alone, 5.0 ppm, cucumber leaf disk, 15° C., four days

| SMILES | preventive value (%) [1] | preventive value (%) [2] | pest or weed control at 0.5 ppm [1] | pest or weed control at 5 ppm [2] | other results |
| --- | --- | --- | --- | --- | --- |
| COC(=O)[C@@H](C)N(C(=O)Cc1ccccc1)c1c(C)cccc1C [benalaxyl-M] | 10% | 15% | – | – | – |
| O=C(Nc1ccccc1-c1ccc(Cl)cc1)c1cccnc1Cl [boscalid] | – | – | 49% | 56% | – |
| C[C@@H](NC(=O)C(C#N)C(C)(C)C)c1ccc(Cl)cc1Cl (stereo partly drawn) [diclocymet] | – | – | – | – | pest or weed control at 0.5 ppm: 10%; pest or weed control at 5 ppm: 15% |
| COc1ccc(C(=CC(=O)N2CCOCC2)c2ccc(Cl)cc2)cc1OC [dimethomorph] | – | – | 10% | 15% | – |
| CC1(C(=O)Nc2ccc(O)c(Cl)c2Cl)CCCCC1 [fenhexamid] | – | – | 20% | 57% | – |
| O=C(NCCc1ncc(C(F)(F)F)cc1Cl)c1ccccc1C(F)(F)F [fluopyram] | – | – | 35% | 45% | – |
| Cc1nn(C)c(Cl)c1C(=O)Nc1cccc2c1C(C)OC2(C)C (stereo not drawn) [furametpyr] | 15% | 20% | – | – | – |
| CC(C)C1C2CCC1c1c(NC(=O)c3cn(C)nc3C(F)F)cccc12 (stereo not drawn) [isopyrazam] | 20% | 40% | – | – | – |
| N#Cc1ccccc1NC(=O)c1snc(Cl)c1Cl [isotianil] | 10% | 25% | – | – | – |
| COCC(=O)N(c1c(C)cccc1C)N1CCOC1=O [oxadixyl] | – | – | – | – | pest or weed control at 0.5 ppm: 10%; pest or weed control at 5 ppm: 15% |
| O=C(Nc1ccccc1)N(Cc1ccc(Cl)cc1)C1CCCC1 [pencycuron] | – | – | 10% | 15% | – |
| CC(C)CC(C)c1sccc1NC(=O)c1cn(C)nc1C(F)(F)F (stereo not drawn) [penthiopyrad] | – | – | 39% | 45% | – |
